Calls of active or inactive are those of the source. No rule for the calls is given here.
Tested on: CCRIS mutagenicity, Ames/micronucleus/aberration tests
Assay: CCRIS mutagenicity studies

Measured: mutagenic call

CC(=O)Nc1ccc(O)cc1
inactive: Test System: AMES SALMONELLA TYPHIMURIUM, Strain/Indicator: TA97, Metabolic Activation: NONE, Method: STANDARD PLATE inactive; negative | Test System: AMES SALMONELLA TYPHIMURIUM, Strain/Indicator: TA97, Metabolic Activation: RAT, LIVER, S-9, AROCLOR 1254, Method: STANDARD PLATE inactive; negative | Test System: AMES SALMONELLA TYPHIMURIUM, Strain/Indicator: TA98, Metabolic Activation: GUINEA PIG, LIVER, S-9, PCB, Method: PREINCUBATION inactive; negative | Test System: AMES SALMONELLA TYPHIMURIUM, Strain/Indicator: TA98, Metabolic Activation: HAMSTER, LIVER, S-9, AROCLOR 1254 (10%), Method: PREINCUBATION inactive; negative | Test System: AMES SALMONELLA TYPHIMURIUM, Strain/Indicator: TA98, Metabolic Activation: HAMSTER, LIVER, S-9, AROCLOR 1254, Method: STANDARD PLATE inactive; negative | Test System: AMES SALMONELLA TYPHIMURIUM, Strain/Indicator: TA98, Metabolic Activation: HAMSTER, LIVER, S-9, PCB, Method: PREINCUBATION inactive; negative | Test System: AMES SALMONELLA TYPHIMURIUM, Strain/Indicator: TA98, Metabolic Activation: MOUSE, LIVER, S-9, AROCLOR 1254, Method: STANDARD PLATE inactive; negative | Test System: AMES SALMONELLA TYPHIMURIUM, Strain/Indicator: TA98, Metabolic Activation: MOUSE, LIVER, S-9, PCB, Method: PREINCUBATION inactive; negative | Test System: AMES SALMONELLA TYPHIMURIUM, Strain/Indicator: TA98, Metabolic Activation: NONE, Method: PREINCUBATION inactive; negative | Test System: AMES SALMONELLA TYPHIMURIUM, Strain/Indicator: TA98, Metabolic Activation: NONE, Method: STANDARD PLATE inactive; negative | Test System: AMES SALMONELLA TYPHIMURIUM, Strain/Indicator: TA98, Metabolic Activation: RAT, LIVER, S-9, AROCLOR 1254 (10%), Method: PREINCUBATION inactive; negative | Test System: AMES SALMONELLA TYPHIMURIUM, Strain/Indicator: TA98, Metabolic Activation: RAT, LIVER, S-9, AROCLOR 1254, Method: STANDARD PLATE inactive; negative | Test System: AMES SALMONELLA TYPHIMURIUM, Strain/Indicator: TA98, Metabolic Activation: RAT, LIVER, S-9, ETHANOL, Method: STANDARD PLATE inactive; negative | Test System: AMES SALMONELLA TYPHIMURIUM, Strain/Indicator: TA98, Metabolic Activation: RAT, LIVER, S-9, PCB, Method: PREINCUBATION inactive; negative | Test System: AMES SALMONELLA TYPHIMURIUM, Strain/Indicator: TA98, Metabolic Activation: RAT, LIVER, S-9, PYRAZOLE, Method: STANDARD PLATE inactive; negative | Test System: AMES SALMONELLA TYPHIMURIUM, Strain/Indicator: TA100, Metabolic Activation: GUINEA PIG, LIVER, S-9, PCB, Method: PREINCUBATION inactive; negative | Test System: AMES SALMONELLA TYPHIMURIUM, Strain/Indicator: TA100, Metabolic Activation: HAMSTER, LIVER, S-9, AROCLOR 1254 (10%), Method: PREINCUBATION inactive; negative | Test System: AMES SALMONELLA TYPHIMURIUM, Strain/Indicator: TA100, Metabolic Activation: HAMSTER, LIVER, S-9, AROCLOR 1254, Method: STANDARD PLATE inactive; negative | Test System: AMES SALMONELLA TYPHIMURIUM, Strain/Indicator: TA100, Metabolic Activation: MOUSE, LIVER, S-9, AROCLOR 1254, Method: STANDARD PLATE inactive; negative | Test System: AMES SALMONELLA TYPHIMURIUM, Strain/Indicator: TA100, Metabolic Activation: MOUSE, LIVER, S-9, PCB, Method: PREINCUBATION inactive; negative | Test System: AMES SALMONELLA TYPHIMURIUM, Strain/Indicator: TA100, Metabolic Activation: NONE, Method: PREINCUBATION inactive; negative | Test System: AMES SALMONELLA TYPHIMURIUM, Strain/Indicator: TA100, Metabolic Activation: NONE, Method: STANDARD PLATE inactive; negative | Test System: AMES SALMONELLA TYPHIMURIUM, Strain/Indicator: TA100, Metabolic Activation: RAT, LIVER, S-9, AROCLOR 1254 (10%), Method: PREINCUBATION inactive; negative | Test System: AMES SALMONELLA TYPHIMURIUM, Strain/Indicator: TA100, Metabolic Activation: RAT, LIVER, S-9, AROCLOR 1254, Method: STANDARD PLATE inactive; negative | Test System: AMES SALMONELLA TYPHIMURIUM, Strain/Indicator: TA100, Metabolic Activation: RAT, LIVER, S-9, ETHANOL, Method: STANDARD PLATE inactive; negative | Test System: AMES SALMONELLA TYPHIMURIUM, Strain/Indicator: TA100, Metabolic Activation: RAT, LIVER, S-9, PCB, Method: PREINCUBATION inactive; negative | Test System: AMES SALMONELLA TYPHIMURIUM, Strain/Indicator: TA100, Metabolic Activation: RAT, LIVER, S-9, PYRAZOLE, Method: STANDARD PLATE inactive; negative | Test System: AMES SALMONELLA TYPHIMURIUM, Strain/Indicator: TA102, Metabolic Activation: RAT, LIVER, S-9, ETHANOL, Method: STANDARD PLATE inactive; negative | Test System: AMES SALMONELLA TYPHIMURIUM, Strain/Indicator: TA102, Metabolic Activation: RAT, LIVER, S-9, PYRAZOLE, Method: STANDARD PLATE inactive; negative | Test System: AMES SALMONELLA TYPHIMURIUM, Strain/Indicator: TA1535, Metabolic Activation: HAMSTER, LIVER, S-9, AROCLOR 1254 (10%), Method: PREINCUBATION inactive; negative | Test System: AMES SALMONELLA TYPHIMURIUM, Strain/Indicator: TA1535, Metabolic Activation: HAMSTER, LIVER, S-9, AROCLOR 1254, Method: STANDARD PLATE inactive; negative | Test System: AMES SALMONELLA TYPHIMURIUM, Strain/Indicator: TA1535, Metabolic Activation: MOUSE, LIVER, S-9, AROCLOR 1254, Method: STANDARD PLATE inactive; negative | Test System: AMES SALMONELLA TYPHIMURIUM, Strain/Indicator: TA1535, Metabolic Activation: NONE, Method: PREINCUBATION inactive; negative | Test System: AMES SALMONELLA TYPHIMURIUM, Strain/Indicator: TA1535, Metabolic Activation: NONE, Method: STANDARD PLATE inactive; negative | Test System: AMES SALMONELLA TYPHIMURIUM, Strain/Indicator: TA1535, Metabolic Activation: RAT, LIVER, S-9, AROCLOR 1254 (10%), Method: PREINCUBATION inactive; negative | Test System: AMES SALMONELLA TYPHIMURIUM, Strain/Indicator: TA1535, Metabolic Activation: RAT, LIVER, S-9, AROCLOR 1254, Method: STANDARD PLATE inactive; negative | Test System: AMES SALMONELLA TYPHIMURIUM, Strain/Indicator: TA1535, Metabolic Activation: RAT, LIVER, S-9, PYRAZOLE, Method: STANDARD PLATE inactive; negative | Test System: AMES SALMONELLA TYPHIMURIUM, Strain/Indicator: TA1537, Metabolic Activation: HAMSTER, LIVER, S-9, AROCLOR 1254 (10%), Method: PREINCUBATION inactive; negative | Test System: AMES SALMONELLA TYPHIMURIUM, Strain/Indicator: TA1537, Metabolic Activation: HAMSTER, LIVER, S-9, AROCLOR 1254, Method: STANDARD PLATE inactive; negative | Test System: AMES SALMONELLA TYPHIMURIUM, Strain/Indicator: TA1537, Metabolic Activation: MOUSE, LIVER, S-9, AROCLOR 1254, Method: STANDARD PLATE inactive; negative | Test System: AMES SALMONELLA TYPHIMURIUM, Strain/Indicator: TA1537, Metabolic Activation: NONE, Method: PREINCUBATION inactive; negative | Test System: AMES SALMONELLA TYPHIMURIUM, Strain/Indicator: TA1537, Metabolic Activation: NONE, Method: STANDARD PLATE inactive; negative | Test System: AMES SALMONELLA TYPHIMURIUM, Strain/Indicator: TA1537, Metabolic Activation: RAT, LIVER, S-9, AROCLOR 1254 (10%), Method: PREINCUBATION inactive; negative | Test System: AMES SALMONELLA TYPHIMURIUM, Strain/Indicator: TA1537, Metabolic Activation: RAT, LIVER, S-9, AROCLOR 1254, Method: STANDARD PLATE inactive; negative | Test System: AMES SALMONELLA TYPHIMURIUM, Strain/Indicator: TA1537, Metabolic Activation: RAT, LIVER, S-9, PYRAZOLE, Method: STANDARD PLATE inactive; negative | Test System: AMES SALMONELLA TYPHIMURIUM, Strain/Indicator: TA1538, Metabolic Activation: HAMSTER, LIVER, S-9, AROCLOR 1254, Method: STANDARD PLATE inactive; negative | Test System: AMES SALMONELLA TYPHIMURIUM, Strain/Indicator: TA1538, Metabolic Activation: MOUSE, LIVER, S-9, AROCLOR 1254, Method: STANDARD PLATE inactive; negative | Test System: AMES SALMONELLA TYPHIMURIUM, Strain/Indicator: TA1538, Metabolic Activation: NONE, Method: STANDARD PLATE inactive; negative | Test System: AMES SALMONELLA TYPHIMURIUM, Strain/Indicator: TA1538, Metabolic Activation: RAT, LIVER, S-9, AROCLOR 1254, Method: STANDARD PLATE inactive; negative | Test System: TEST SALMONELLA TYPHIMURIUM, Strain/Indicator: TA1537, Metabolic Activation: RAT, LIVER, S-9, AROCLOR 1254, Method: STANDARD PLATE inactive; negative
active: End Point: IN VITRO MICRONUCLEUS, Test System: CHL/IU CELLS, Metabolic Activation: NONE active; positive | End Point: IN VITRO MICRONUCLEUS, Test System: RAT KIDNEY FIBROBLAST NRK-49F, Metabolic Activation: NONE active; positive | Test System: AMES SALMONELLA TYPHIMURIUM, Strain/Indicator: TA100, Metabolic Activation: HAMSTER, LIVER, S-9, PCB, Method: PREINCUBATION active; positive
